# According to paper PMC11026380, “Statine-based peptidomimetic compounds as inhibitors for SARS-CoV-2 main protease (SARS-CoV‑2 Mpro)” (Scientific Reports, 2024):
# Entries after “also recorded” stand apart in the source; their conditions may differ.
# Columns and labels:
# [1] = tested on: SARS-CoV-2 B.1 lineage isolate; test: microbe, parasite or virus in culture; details: Severe acute respiratory syndrome coronavirus 2, Calu-3, 24 h
# [2] = tested on: SARS-CoV-2 B.1 lineage isolate; test: in vitro; details: human
# [3] = Cytotoxicity by methylene blue viability assay; details: human
# [4] = biological target: SARS-CoV-2 Mpro (Severe acute respiratory syndrome coronavirus 2, UniProt P0DTD1); test: biochemical; details: enzyme 1.5 μM, substrate 50 μM; for IC50 / IC50 (µM): FRET, 15 min preincubation at 37 °C; for Emax: read-out: Maximum inhibition (%), efficacy compared to negative control (vehicle, DMSO)
# [5] = in vitro; details: human
# [6] = tested on: SARS-CoV-2 B.1 lineage isolate
# [7] = tested on: Calu-3 cells; test: Cytotoxicity by methylene blue viability assay; details: Calu-3 cells
# [8] = tested on: SARS-CoV-2; details: comparator values quoted in text; cited from earlier work
Structure (SMILES),melting point,IC50 [4],Emax ([4]; compounds 0.001 to 1000 μM),also measured
COC(=O)[C@H](Cc1ccccc1)NC(=O)C[C@H](O)[C@H](Cc1ccccc1)NC(=O)OC(C)(C)C,79 to 80 °C,–,–,–
COC(=O)[C@@H]1CCCN1C(=O)C[C@H](OC(C)=O)[C@H](Cc1ccccc1)NC(=O)OC(C)(C)C,90 to 92 °C,–,–,–
"COC(=O)N[C@H](C(=O)N[C@@H](Cc1ccccc1)[C@@H](O)CN(Cc1ccc(-c2ccccn2)cc1)NC(=O)[C@@H](NC(=O)OC)C(C)(C)C)C(C)(C)C [ATV, atazanavir, reference compound]",–,–,–,EC50 [1]: 1.53 ± 0.3 µM; selectivity ratio [2]: > 131; CC50 at 72 h [3]: > 200 µM
COC(=O)[C@H](CO)NC(=O)C[C@H](O)[C@H](Cc1ccccc1)NC(=O)OC(C)(C)C [Compound 7a],–,> 1000 µM,70%,–
COC(=O)[C@H](Cc1ccc(O)cc1)NC(=O)C[C@H](O)[C@H](Cc1ccccc1)NC(=O)OC(C)(C)C [Compound 7b],60 to 62 °C,> 1000 µM,70%,–
COC(=O)[C@@H](NC(=O)C[C@H](O)[C@H](Cc1ccccc1)NC(=O)OC(C)(C)C)[C@H](C)O [Compound 7c],124 to 125 °C,–,< 50%,–
COC(=O)[C@@H](O)CNC(=O)C[C@H](O)[C@H](Cc1ccccc1)NC(=O)OC(C)(C)C [Compound 7d],65 to 66 °C,0.924 µM,> 70%,IC50 (µM) [4]: sub-micromolar range; CC50 at 72 h [5]: > 200 µM; EC50 [1]: 1.76 ± 0.3 µM; selectivity ratio [2]: > 114; Inhibition of SARS-CoV-2 replication [6]: roughly 80%
COC(=O)[C@H](CC(C)C)NC(=O)C[C@H](O)[C@H](Cc1ccccc1)NC(=O)OC(C)(C)C [Compound 7e],–,–,< 50%,–
COC(=O)[C@@H](NC(=O)CC(O)C(Cc1ccccc1)NC(=O)OC(C)(C)C)C(C)C (some centres unmarked) [Compound 7h],–,–,–,"Maximum inhibition (%) ([4]; efficacy compared to negative control (vehicle, DMSO), compounds 0.001 to 1000 μM): < 50%"
COC(=O)[C@H](COC(C)=O)NC(=O)C[C@H](OC(C)=O)[C@H](Cc1ccccc1)NC(=O)OC(C)(C)C [Compound 8a],97 to 98 °C,1000 µM,50%,–
COC(=O)[C@H](Cc1ccc(OC(C)=O)cc1)NC(=O)C[C@H](OC(C)=O)[C@H](Cc1ccccc1)NC(=O)OC(C)(C)C [Compound 8b],88 to 89 °C,> 1000 µM,65%,–
COC(=O)[C@@H](NC(=O)C[C@H](OC(C)=O)[C@H](Cc1ccccc1)NC(=O)OC(C)(C)C)[C@H](C)OC(C)=O [Compound 8c],54 to 55 °C,2.45 µM,≥ 60%,–
COC(=O)[C@H](CC(C)C)NC(=O)C[C@H](OC(C)=O)[C@H](Cc1ccccc1)NC(=O)OC(C)(C)C [Compound 8d],94 to 95 °C,0.391 µM,≥ 60%,–
COC(=O)[C@H](Cc1ccccc1)NC(=O)C[C@H](OC(C)=O)[C@H](Cc1ccccc1)NC(=O)OC(C)(C)C [Compound 8e],89 to 91 °C,0.606 µM,> 70%,IC50 (µM) [4]: sub-micromolar range; CC50 at 72 h [5]: > 200 µM; EC50 [1]: 1.79 ± 0.1 µM; selectivity ratio [2]: > 112; Inhibition of SARS-CoV-2 replication [6]: roughly 80%
COC(=O)[C@@H](NC(=O)C[C@H](OC(C)=O)[C@H](Cc1ccccc1)NC(=O)OC(C)(C)C)C(C)C [Compound 8g],–,> 1000 µM,66%,–
COC(=O)[C@H](CO)NC(=O)C[C@H](O)[C@@H](N)Cc1ccccc1.O=C(O)C(F)(F)F [Compound 9a],120 to 121 °C,> 1000 µM,57%,–
COC(=O)[C@H](Cc1ccc(O)cc1)NC(=O)C[C@H](O)[C@@H](N)Cc1ccccc1.O=C(O)C(F)(F)F [Compound 9b],98 to 99 °C,> 1000 µM,52%,–
COC(=O)[C@H](CC(C)C)NC(=O)C[C@H](O)[C@@H](N)Cc1ccccc1.O=C(O)C(F)(F)F [Compound 9d],147 to 148 °C,778 µM,58%,–
COC(=O)[C@H](Cc1ccccc1)NC(=O)C[C@H](O)[C@@H](N)Cc1ccccc1 [Compound 9e],–,> 1000 µM,51%,–
COC(=O)[C@@H]1CCCN1C(=O)C[C@H](O)[C@@H](N)Cc1ccccc1 [Compound 9f],–,> 1000 µM,68%,–
COC(=O)[C@@H](NC(=O)C[C@H](O)[C@@H](N)Cc1ccccc1)C(C)C.O=C(O)C(F)(F)F [Compound 9g],–,0.617 µM,> 70%,IC50 (µM) [4]: sub-micromolar range; EC50 [1]: 1.51 ± 0.2 µM; selectivity ratio [2]: > 132; Inhibition of SARS-CoV-2 replication [6]: roughly 80%; CC50 at 72 h [3]: > 200 µM; Cytotoxicity (in words) [7]: no cytotoxicity; also recorded: non-cytotoxic
CC(C)(C)OC(=O)N[C@@H](Cc1ccccc1)[C@@H](O)CC(=O)N[C@@H](Cc1ccccc1)C(=O)NN [Compound 10],–,> 1000 µM,61%,–
CC(C)C(=O)OC[C@H]1O[C@@H](n2ccc(NO)nc2=O)[C@H](O)[C@@H]1O [molnupiravir],–,–,–,EC50 [8]: 1.97 µM
